# Experimental data: BindingDB's records for doi:10.1016/j.bmcl.2008.04.044 (Wyeth Research, 2008)
# pIC50: −log10 of the molar value.
# Target: Insulin-like growth factor 1 receptor (Homo sapiens, UniProt P08069)
# Experiment: In Vitro Kinase Inhibition Assay
# Details: pH 7.5; 22 °C
# Procedure: Assays were performed in microtiter plates in reaction buffer containing biotinylated substrate, ATP, and purified kinase in the presence of test compounds. After incubation, product was detected using a homogeneous time-resolved fluorescence […] assay (LANCE).
# Chain of Insulin-like growth factor 1 receptor (P08069 31-736 limits assumed): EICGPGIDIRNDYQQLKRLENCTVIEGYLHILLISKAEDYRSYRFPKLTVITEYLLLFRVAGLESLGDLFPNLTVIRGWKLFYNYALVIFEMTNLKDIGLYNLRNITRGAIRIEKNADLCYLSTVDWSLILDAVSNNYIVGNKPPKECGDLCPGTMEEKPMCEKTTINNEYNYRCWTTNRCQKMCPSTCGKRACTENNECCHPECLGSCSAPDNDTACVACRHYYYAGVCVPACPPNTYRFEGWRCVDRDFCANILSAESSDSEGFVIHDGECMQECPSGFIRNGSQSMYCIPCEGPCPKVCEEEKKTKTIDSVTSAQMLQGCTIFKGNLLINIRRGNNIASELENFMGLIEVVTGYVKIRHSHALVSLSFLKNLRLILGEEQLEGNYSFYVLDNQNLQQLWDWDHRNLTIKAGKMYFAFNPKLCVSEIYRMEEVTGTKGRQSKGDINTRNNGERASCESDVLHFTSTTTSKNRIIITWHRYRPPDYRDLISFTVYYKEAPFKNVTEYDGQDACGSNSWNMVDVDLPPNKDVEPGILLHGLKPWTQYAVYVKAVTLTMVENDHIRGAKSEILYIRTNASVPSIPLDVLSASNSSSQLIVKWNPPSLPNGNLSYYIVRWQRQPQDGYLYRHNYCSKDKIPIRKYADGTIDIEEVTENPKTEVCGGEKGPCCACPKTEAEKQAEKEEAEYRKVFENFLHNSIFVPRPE
# Chain of Insulin-like growth factor 1 receptor (P08069 741-1367 limits assumed): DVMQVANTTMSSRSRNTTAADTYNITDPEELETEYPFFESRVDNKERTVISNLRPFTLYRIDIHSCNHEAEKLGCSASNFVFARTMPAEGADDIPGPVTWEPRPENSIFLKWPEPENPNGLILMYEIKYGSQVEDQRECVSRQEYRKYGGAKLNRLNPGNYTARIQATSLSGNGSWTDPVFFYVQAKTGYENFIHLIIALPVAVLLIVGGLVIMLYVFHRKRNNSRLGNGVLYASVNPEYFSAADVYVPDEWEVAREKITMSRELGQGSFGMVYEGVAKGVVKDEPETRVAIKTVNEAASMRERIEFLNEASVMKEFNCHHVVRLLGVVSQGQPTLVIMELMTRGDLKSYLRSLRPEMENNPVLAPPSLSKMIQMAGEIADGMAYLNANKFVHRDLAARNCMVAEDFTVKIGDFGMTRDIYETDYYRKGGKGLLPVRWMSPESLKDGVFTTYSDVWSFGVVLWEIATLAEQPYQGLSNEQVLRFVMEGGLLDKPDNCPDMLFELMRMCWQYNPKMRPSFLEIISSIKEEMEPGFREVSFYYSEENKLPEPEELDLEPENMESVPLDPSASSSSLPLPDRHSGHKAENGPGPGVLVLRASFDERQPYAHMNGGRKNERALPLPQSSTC
row,pIC50,Compound
1,< 5.00,"O=C1NC(=O)c2ccc(Nc3ccc4[nH]ccc4c3)cc2C1=CNc1ccc(CN2CCCCC2)cc1 [(4Z)-6-(1H-indol-5-ylamino)-4-({[4-(piperidin-1-ylmethyl)phenyl]amino}methylidene)-1,2,3,4-tetrahydroisoquinoline-1,3-dione]"
2,< 5.00,"O=C1NC(=O)c2ccc(Nc3cccc(Cl)c3)cc2C1=CNc1ccccc1 [(4Z)-6-[(3-chlorophenyl)amino]-4-[(phenylamino)methylidene]-1,2,3,4-tetrahydroisoquinoline-1,3-dione]"
3,< 5.00,"Nc1cccc(Nc2ccc3c(c2)C(=CNc2ccc(CN4CCCCC4)cc2)C(=O)NC3=O)c1 [(4Z)-6-[(3-aminophenyl)amino]-4-({[4-(piperidin-1-ylmethyl)phenyl]amino}methylidene)-1,2,3,4-tetrahydroisoquinoline-1,3-dione]"
4,< 5.00,"CCOC(=O)c1ccc(Nc2ccc3c(c2)C(=CNc2ccc(CN4CCCCC4)cc2)C(=O)NC3=O)cc1 [ethyl 4-{[(4Z)-1,3-dioxo-4-({[4-(piperidin-1-ylmethyl)phenyl]amino}methylidene)-1,2,3,4-tetrahydroisoquinolin-6-yl]amino}benzoate]"
5,< 5.00,"COc1cc(Nc2ccc3c(c2)C(=CNc2ccc(CN4CCCCC4)cc2)C(=O)NC3=O)cc(C(F)(F)F)c1 [(4Z)-6-{[3-methoxy-5-(trifluoromethyl)phenyl]amino}-4-({[4-(piperidin-1-ylmethyl)phenyl]amino}methylidene)-1,2,3,4-tetrahydroisoquinoline-1,3-dione]"
6,< 5.00,"COc1cccc(Nc2ccc3c(c2)C(=CNc2ccccc2)C(=O)NC3=O)c1 [(4Z)-6-[(3-methoxyphenyl)amino]-4-[(phenylamino)methylidene]-1,2,3,4-tetrahydroisoquinoline-1,3-dione]"
7,< 5.00,"CN(C)c1ccc(Nc2ccc3c(c2)C(=CNc2ccc(CN4CCCCC4)cc2)C(=O)NC3=O)cc1 [(4Z)-6-{[4-(dimethylamino)phenyl]amino}-4-({[4-(piperidin-1-ylmethyl)phenyl]amino}methylidene)-1,2,3,4-tetrahydroisoquinoline-1,3-dione]"
8,< 5.00,"O=C1NC(=O)c2ccc(Nc3ccc(Cl)cc3)cc2C1=CNc1ccc(CN2CCCCC2)cc1 [(4Z)-6-[(4-chlorophenyl)amino]-4-({[4-(piperidin-1-ylmethyl)phenyl]amino}methylidene)-1,2,3,4-tetrahydroisoquinoline-1,3-dione]"
9,< 5.00,"Cc1cccc(Nc2ccc3c(c2)C(=CNc2ccc(CN4CCCCC4)cc2)C(=O)NC3=O)c1 [(4Z)-6-[(3-methylphenyl)amino]-4-({[4-(piperidin-1-ylmethyl)phenyl]amino}methylidene)-1,2,3,4-tetrahydroisoquinoline-1,3-dione]"
10,< 5.00,"O=C1NC(=O)c2ccc(Nc3cccc(C(F)(F)F)c3)cc2C1=CNc1ccc(CN2CCCCC2)cc1 [(4Z)-4-({[4-(piperidin-1-ylmethyl)phenyl]amino}methylidene)-6-{[3-(trifluoromethyl)phenyl]amino}-1,2,3,4-tetrahydroisoquinoline-1,3-dione]"
